In patent US11001595B2, “Pyrimidine compounds and pyrimido indole compounds and methods of use” (Duquesne University of the Holy Spirit, priority 2014, dated 2021) one finds IC50, Rr and EC50 data, which are given here for four molecules.

Read-outs that look alike come from different tables or passages of the source.

For series [1], the system named is SK-OV-3 cells. The conditions noted are these: Table 2, parental line; cited from earlier work.
For series [2], the system named is HeLa cells. The conditions noted are these: Table 3, parental line; cited from earlier work.
In series [3] the test system is HeLa WTβ-III cells (β-III tubulin expressing). The conditions noted are these: cited from earlier work.
Series [4] deals with SK-OV-3 MDR-1-6/6 cells (P-gp expressing). The conditions noted are these: cited from earlier work.
A further series relates to MDA-MB-435 cells. Kind of series: Inhibition of cell proliferation, MDA-MB-435 (Section A). The series is classed as cell-based, human. The conditions noted are these: Table 4; read-out: IC50 ± SD in MDA-MB-435 Cells.
Series [5] concerns microtubules in A-10 cells. Kind of series: Microtubule depolymerization in A-10 cells (Section A). The conditions noted are these: Table 4, unit of column head (CA-4 row). The format is cell-based.
The subject of series [6] is HeLa WTβ-III cells (β-III tubulin expressing). Description: Effect of β-III tubulin on drug sensitivity, HeLa WT β-III (Section A). The conditions noted are these: for Rr: Table 6, relative resistance HeLa WTβ-III vs HeLa. The format is cell-based.
For a further series, the system named is OVCAR-8 cells. Description: Antiproliferative effect, parental OVCAR-8, SRB assay (Section E). The format is cell-based, human.
In the next series the test system is Wild type HeLa cells. Description: Antiproliferative effect, wild type HeLa, SRB assay (Section E). The series is classed as cell-based, human. The conditions noted are these: read-out: IC50 ± SD Wild type HeLa. On the technique in general: In SRB staining, fixed cells bind dye roughly in proportion to their protein.
Series [7] has as its system βIII Overexpressing HeLa cells. Kind of series: Antiproliferative effect, βIII overexpressing HeLa, SRB assay (Section E). The conditions noted are these: for Rr: IC50 of β-III overexpressing HeLa divided by IC50 of parental HeLa; for IC50: SRB assay, read-out: IC50 ± SD βIII Overexpressing HeLa. The format is cell-based, human.
For series [8], the system named is NCl/ADR-RES cells (Pgp overexpressing). Description: Antiproliferative effect, Pgp overexpressing NCI/ADR-RES, SRB assay (Section E). The conditions noted are these: for Rr: IC50 of Pgp overexpressing line divided by IC50 of parental OVCAR-8; for IC50: read-out: IC50 ± SD Pgp Overexpressing NCl/ADR-RES.
Series [9] concerns SK-OV-3 cells. Description: Drug sensitivity in parental SK-OV-3 cells (Section A). The series is classed as cell-based. The conditions noted are these: Homo sapiens, Table 5, parental line.
Series [10] relates to HeLa cells. Kind of series: Drug sensitivity in HeLa cells (Section A). The series is classed as cell-based. The conditions noted are these: Homo sapiens, Table 6, parental line, read-out: IC50 ± SD in HeLa.
Series [11] has as its system SK-OV-3 MDR-1-6/6 cells (P-gp expressing). The conditions noted are these: Table 5, relative resistance SK-OV-3 MDR-1-6/6 vs SK-OV-3.
For the next series, the target named is recombinant pjDHFR (Pneumocystis jirovecii (Human pneumocystis pneumonia agent), UniProt Q9UUP5). Description: Inhibition of recombinant pjDHFR. The format is biochemical. The conditions noted are these: 37° C., 18 μM dihydrofolic acid.

Regarding `COc1ccc(/C=C\c2cc(OC)c(OC)c(OC)c2)cc1OP(=O)(O)O` [CA4P, combretastatin A-4 phosphate], the IC50 in the series on SK-OV-3 cells [1] was 4.5 ± 0.2 nM; in the series with HeLa cells [2], 4.7 ± 0.2 nM; in [3] (Table 3, β-III tubulin expressing line, read-out: WT β-III IC50), 5.7 ± 0.4 nM; in series [4] (read-out: SK-OV-3 MDR-1-6/6 IC50, Table 2, P-gp expressing line), 6.6 ± 1.3 nM. For the same molecule, the Rr in [3] (Table 3, relative resistance WT β-III vs HeLa) was 1.2; in series [4] (Table 2, relative resistance SK-OV-3 MDR-1-6/6 vs SK-OV-3), 1.5.

The term EC50 denotes the concentration that produces a half-maximal response. Low readings indicate an effect from little substance, high ones a need for much substance. Turning to `COc1ccc(/C=C\c2cc(OC)c(OC)c(OC)c2)cc1O` [CA-4, combretastatin A-4], the IC50 with MDA-MB-435 cells worked out at 4.4 ± 0.46 nM; in the series on OVCAR-8 cells (read-out: IC50 ± SD Parental OVCAR-8), 6 ± 0.7 nM; with Wild type HeLa cells it was 1.8 ± 0.4 nM; in series [7] it was 2.5 ± 0.7 nM; in series [8] (SRB assay), 9 ± 2 nM. Also, the midpoint of the response in series [5], the EC50, lay at 9.8 nM. For the same molecule, the Rr amounted to 1 in series [6], 1.38 in [7] and 1.5 in series [8].

On to `CC(=O)O[C@H]1C(=O)[C@@]2(C)[C@H]([C@H](OC(=O)c3ccccc3)[C@]3(O)C[C@H](OC(=O)[C@H](O)[C@@H](NC(=O)c4ccccc4)c4ccccc4)C(C)=C1C3(C)C)[C@]1(OC(C)=O)CO[C@@H]1C[C@@H]2O` [Paclitaxel], for which the IC50 was found to be 5 ± 0.6 nM with SK-OV-3 cells [9]; 2.8 ± 0.36 nM with HeLa cells [10]; 24 ± 3 nM in [6] (Homo sapiens, HeLa, Table 6, β-III tubulin expressing line, read-out: IC50 ± SD in HeLa WTβ-III); 10 nM in the series on OVCAR-8 cells (Homo sapiens, OVCAR-8, read-out: IC50 ± SD Parental OVCAR-8); 5.3 ± 2 nM in the series with Wild type HeLa cells (Homo sapiens, HeLa); 16 ± 1 nM in [7] (Homo sapiens, HeLa). In addition, the IC50 in series [8] (Homo sapiens, NCI/ADR-RES) came out at 5000 nM. The Rr in series [6] is listed as 8.6; in series [7] it was 3.01; in series [11] it was 240; in [8], 500.

As to `COc1cc(NCc2ccc3nc(N)nc(N)c3c2C)cc(OC)c1OC` [TMQ, Trimetrexate], at recombinant pjDHFR, the IC50 stood at 2.1 nM.
